The values that follow come from patent EP0876142B1, “TOPICAL DELIVERY OF DRUGS TO THE LOWER GASTROINTESTINAL TRACT” (Advanced Polymer Systems, Inc., priority 1996, dated 1997).

This series in a line: In vitro release of hydrocortisone (modified USP dissolution apparatus). Particulars: after the first two hours. In kind it is physicochemical. Here is the method: The radioactively labelled hydrocortisone was entrapped in two steps using a 5% ethanolic solution at each step. Release of entrapped hydrocortisone at pH 7.5 was measured using a modified USP dissolution apparatus with a basket of 5 µm mesh and a stirring speed of 150 rpm. Sixty percent of the entrapped hydrocortisone was released in the first two hours with a further 15% released over the next six hours. The dissolution rate of free radioactively labelled hydrocortisone was also measured.

Structures are written as SMILES.

As for `C[C@]12CCC(=O)C=C1CC[C@@H]1[C@@H]2[C@@H](O)C[C@@]2(C)[C@H]1CC[C@]2(O)C(=O)CO` [free hydrocortisone, hydrocortisone], the total dissolution result was “total dissolution occurred in another six hours”.
